Experimental data: patent US12472170B2, “Use of glutamate 2B receptor antagonists and sigma receptor agonists as antitussives” (Seyltx, Inc., priority 2019, dated 2025)
“And” between values parts separate entries of the source, which are not always exact repeats. Identical values can stand only once.

System: citric acid (1M) evoked cough in guinea pigs
Experiment: Citric acid (1M) aerosol-evoked coughs and sneezes in conscious guinea pigs after oral pre-treatment
Format: in vivo, Male Dunkin Hartley guinea pigs
Description: The guinea pig species used in one study was twenty four Male Dunkin Hartley guinea pigs, each weighing between 300 and 350 g, which were supplied by Marshall Bioresources Ltd, UK.
A test compound, Ifenprodil, and Gefapixant (in powder form) were prepared and formulated by initially adding 100% propylene glycol at the required volume for the final treatment buffer. The additional buffer ingredients were added in a stepwise fashion, initially solutol and then captisol. Each ingredient was added in a volume equivalent to that which is required for the final volume of treatment buffer for the stock formulation.
In particular, for Gefapixant, this was 0.7 mg/mL, a concentration that delivers 3.5 mg/Kg in a dose volume of 5 mL/Kg. For Ifenprodil, this was 0.3 mg/mL, a concentration that delivers 1.5 mg/Kg in a dose volume of 5 mL/Kg.
Prior to the addition of each buffer ingredient, the test compound formulations were sonicated for 15 min using a Branson 1510 Sonicator. Afterwards, the initial formulation of the test compound and Gefapixant were diluted with a prepared buffer vehicle to provide additional dosing formulations. This was 0.01 to 0.2 mg/ml, preferably 0.06 mg/mL, a dose that delivers 0.3 mg/Kg in a dose volume of 5 mL/Kg.
The final test compound buffer vehicle comprised of 10:10:80 mix of propylene glycol:20% Solutol in PBS:5% Captisol in PBS.
All final test and control formulations were sonicated for 30 min prior to dosing to generate an even suspension or to ensure that the formulation had visibly dissolved.
The animals were first pre-treated (5 mL/Kg, p.o.) with the vehicle, the test compound, or Gefapixant prior to tussive agent (citric acid) exposure, using the amounts set out in Table 1 below. In each case, the route of administration of the treatment was oral.
Animals receiving Gefapixant (3.5 mg/Kg) were dosed 2 hours prior to tussive agent exposure. Animals receiving Ifenprodil (1.5 mg/Kg) were dosed 30 minutes prior to tussive agent exposure.
10 min prior to the tussive evaluation, each animal was individually placed into a purpose built exposure chamber with a supplied airflow through a nebuliser of 2 L/min, and allowed to settle into its new environment.
Following the acclimatisation period, each animal was then exposed for 10 min to an aerosol of 1M citric acid using an ultrasonic nebuliser (Aerogen) set at a nominal liquid consumption rate of 0.6 mL/min.
Coughs and sneezes elicited during the 10 minute aerosol of 1M citric acid, and a subsequent 5 minute observation period, were recorded manually to monitor the animal's welfare. […] The data was analysed for onset of cough, cough numbers and frequency, and sneezes.
The following measurements and assessments were taken for each guinea pig: • Mean total number of coughs evoked in each treatment group • Mean onset of first cough in each group • Mean number of coughs per minute during citric acid exposure in each treatment group
Inter-group deviations were statistically analyzed by a one-way analysis of variance (ANOVA). In the case of significant difference in the mean values among the different levels of treatment, comparisons versus the citric acid vehicle group were carried out using the Dunnett's test. p<0.05 was considered statistically significant.

[1] = Mean of n=6 animals, 10 min Citric acid (1M) exposure, Gefapixant 3.5 mg/Kg p.o., Ifenprodil 1.5 mg/Kg
[2] = Mean of n=6 animals, Post Exposure (5 mins) after 10 min Citric acid (1M), Gefapixant 3.5 mg/Kg p.o., Ifenprodil 1.5 mg/Kg
[3] = Total of n=6 animals, 10 min Citric acid (1M) exposure, Gefapixant 3.5 mg/Kg p.o., Ifenprodil 1.5 mg/Kg
[4] = Total of n=6 animals, Post Exposure (5 mins) after 10 min Citric acid (1M), Gefapixant 3.5 mg/Kg p.o., Ifenprodil 1.5 mg/Kg
[5] = individual animals (ID 1-6), 10 min Citric acid (1M) exposure, Gefapixant 3.5 mg/Kg p.o., Ifenprodil 1.5 mg/Kg
[6] = individual animals (ID 1-6), Post Exposure (5 mins) after 10 min Citric acid (1M), Gefapixant 3.5 mg/Kg p.o., Ifenprodil 1.5 mg/Kg

COc1cc(C(C)C)c(Oc2cnc(N)nc2N)cc1S(N)(=O)=O [Gefapixant]
Total Coughs, Mean (10 min citric acid (1M) exposure + 5 min post exposure, group mean, n=6): 23.67 | Total Coughs, individual animal (10 min citric acid (1M) exposure + 5 min post exposure, individual animals 1-6): 16 and 26 and 24 and 23 and 33 and 20 | average number of coughs per animal (total number of coughs) (10 min citric acid (1M) exposure + 5 min recovery, Gefapixant 3.5 mg/Kg p.o. 2 hrs prior, Ifenprodil 1.5 mg/Kg p.o. 30 min prior, n=6): 23.67 coughs per animal | reduction in mean cough frequency vs untreated control (Ifenprodil 1.5 mg/kg (p<0.01), Gefapixant 3.5 mg/kg (p<0.05)): 20% | Sneezes, Observation Period 0-1, group Mean [1]: 0.2 | Sneezes, Observation Period 1-2, group Mean [1]: 0.3 | Sneezes, Observation Period 2-3, group Mean [1]: 0.3 | Sneezes, Observation Period 3-4, group Mean [1]: 0.2 | Sneezes, Observation Period 4-5, group Mean [1]: 0.5 | Sneezes, Observation Period 5-6, group Mean [1]: 0.5 | Sneezes, Observation Period 6-7, group Mean [1]: 0.5 | Sneezes, Observation Period 7-8, group Mean [1]: 0.0 | Sneezes, Observation Period 8-9, group Mean [1]: 0.5 | Sneezes, Observation Period 9-10, group Mean [1]: 0.2 | Sneezes, Observation Period 10-11, group Mean [2]: 0.0 | Sneezes, Observation Period 11-12, group Mean [2]: 0.0 | Sneezes, Observation Period 12-13, group Mean [2]: 0.0 | Sneezes, Observation Period 13-14, group Mean [2]: 0.0 | Sneezes, Observation Period 14-15, group Mean [2]: 0.0 | Total Sneezes, group Mean (Mean of n=6 animals, whole observation period 0-15 (10 min Citric acid (1M) exposure + Post Exposure 5 mins), Gefapixant 3.5 mg/Kg p.o., Ifenprodil 1.5 mg/Kg): 3.17 | Sneezes, Observation Period 0-1, group Total [3]: 1.0 | Sneezes, Observation Period 1-2, group Total [3]: 2.0 | Sneezes, Observation Period 2-3, group Total [3]: 2.0 | Sneezes, Observation Period 3-4, group Total [3]: 1.0 | Sneezes, Observation Period 4-5, group Total [3]: 3.0 | Sneezes, Observation Period 5-6, group Total [3]: 3.0 | Sneezes, Observation Period 6-7, group Total [3]: 3.0 | Sneezes, Observation Period 7-8, group Total [3]: 0.0 | Sneezes, Observation Period 8-9, group Total [3]: 3.0 | Sneezes, Observation Period 9-10, group Total [3]: 1.0 | Sneezes, Observation Period 10-11, group Total [4]: 0.0 | Sneezes, Observation Period 11-12, group Total [4]: 0.0 | Sneezes, Observation Period 12-13, group Total [4]: 0.0 | Sneezes, Observation Period 13-14, group Total [4]: 0.0 | Sneezes, Observation Period 14-15, group Total [4]: 0.0 | first onset of cough (citric acid (1M) exposure, Gefapixant 3.5 mg/Kg p.o., Ifenprodil 1.5 mg/Kg p.o., group mean, n=6): 49.7 s | average number of sneezes per animal (citric acid (1M) exposure, Gefapixant 3.5 mg/Kg p.o., Ifenprodil 1.5 mg/Kg p.o., n=6): 3.17 sneezes per animal | Onset (sec), Mean (citric acid (1M) exposure, group mean, n=6): 49.7 s | Onset (sec), individual animal (citric acid (1M) exposure, individual animals 1-6): 72 s and 24 s and 64 s and 36 s and 32 s and 70 s | Sneezes, Observation Period 0-1 [5]: 0 (5×) and 1 | Sneezes, Observation Period 1-2 [5]: 0 (4×) and 1 (2×) | Sneezes, Observation Period 2-3 [5]: 1 (2×) and 0 (4×) | Sneezes, Observation Period 3-4 [5]: 0 (5×) and 1 | Sneezes, Observation Period 4-5 [5]: 1 (3×) and 0 (3×) | Sneezes, Observation Period 5-6 [5]: 0 (3×) and 1 (3×) | Sneezes, Observation Period 6-7 [5]: 1 (3×) and 0 (3×) | Sneezes, Observation Period 7-8 [5]: 0 | Sneezes, Observation Period 8-9 [5]: 1 (3×) and 0 (3×) | Sneezes, Observation Period 9-10 [5]: 0 (5×) and 1 | Sneezes, Observation Period 10-11 [6]: 0 | Sneezes, Observation Period 11-12 [6]: 0 | Sneezes, Observation Period 12-13 [6]: 0 | Sneezes, Observation Period 13-14 [6]: 0 | Sneezes, Observation Period 14-15 [6]: 0 | Total Sneezes (individual animals (ID 1-6), whole observation period 0-15 (10 min Citric acid (1M) exposure + Post Exposure 5 mins), Gefapixant 3.5 mg/Kg p.o., Ifenprodil 1.5 mg/Kg): 4 (2×) and 3 and 5 and 2 and 1 | Cough, observation period 0-1, Mean (min 0-1 of citric acid (1M) exposure, group mean, n=6): 0.5 | Cough, observation period 0-1, individual animal (min 0-1 of citric acid (1M) exposure, individual animals 1-6): 0 (3×) and 1 (3×) | Cough, observation period 0-1, Total (min 0-1 of citric acid (1M) exposure, sum over 6 animals): 3.0 | Cough, observation period 1-2, Mean (min 1-2 of citric acid (1M) exposure, group mean, n=6): 2.0 | Cough, observation period 1-2, individual animal (min 1-2 of citric acid (1M) exposure, individual animals 1-6): 1 (2×) and 3 (2×) and 2 (2×) | Cough, observation period 1-2, Total (min 1-2 of citric acid (1M) exposure, sum over 6 animals): 12.0 | Cough, observation period 2-3, Mean (min 2-3 of citric acid (1M) exposure, group mean, n=6): 3.0 | Cough, observation period 2-3, individual animal (min 2-3 of citric acid (1M) exposure, individual animals 1-6): 1 and 3 (2×) and 4 and 5 and 2 | Cough, observation period 2-3, Total (min 2-3 of citric acid (1M) exposure, sum over 6 animals): 18.0 | Cough, observation period 3-4, Mean (min 3-4 of citric acid (1M) exposure, group mean, n=6): 2.3 | Cough, observation period 3-4, individual animal (min 3-4 of citric acid (1M) exposure, individual animals 1-6): 2 (3×) and 3 and 4 and 1 | Cough, observation period 3-4, Total (min 3-4 of citric acid (1M) exposure, sum over 6 animals): 14.0 | Cough, observation period 4-5, Mean (min 4-5 of citric acid (1M) exposure, group mean, n=6): 2.8 | Cough, observation period 4-5, individual animal (min 4-5 of citric acid (1M) exposure, individual animals 1-6): 2 (2×) and 3 (3×) and 4 | Cough, observation period 4-5, Total (min 4-5 of citric acid (1M) exposure, sum over 6 animals): 17.0 | Cough, observation period 5-6, Mean (min 5-6 of citric acid (1M) exposure, group mean, n=6): 2.7 | Cough, observation period 5-6, individual animal (min 5-6 of citric acid (1M) exposure, individual animals 1-6): 1 and 3 (3×) and 2 and 4 | Cough, observation period 5-6, Total (min 5-6 of citric acid (1M) exposure, sum over 6 animals): 16.0 | Cough, observation period 6-7, Mean (min 6-7 of citric acid (1M) exposure, group mean, n=6): 2.3 | Cough, observation period 6-7, individual animal (min 6-7 of citric acid (1M) exposure, individual animals 1-6): 1 and 2 (3×) and 4 and 3 | Cough, observation period 6-7, Total (min 6-7 of citric acid (1M) exposure, sum over 6 animals): 14.0 | Cough, observation period 7-8, Mean (min 7-8 of citric acid (1M) exposure, group mean, n=6): 1.7 | Cough, observation period 7-8, individual animal (min 7-8 of citric acid (1M) exposure, individual animals 1-6): 2 (4×) and 1 (2×) | Cough, observation period 7-8, Total (min 7-8 of citric acid (1M) exposure, sum over 6 animals): 10.0 | Cough, observation period 8-9, Mean (min 8-9 of citric acid (1M) exposure, group mean, n=6): 2.0 | Cough, observation period 8-9, individual animal (min 8-9 of citric acid (1M) exposure, individual animals 1-6): 2 (4×) and 3 and 1 | Cough, observation period 8-9, Total (min 8-9 of citric acid (1M) exposure, sum over 6 animals): 12.0 | Cough, observation period 9-10, Mean (min 9-10 of citric acid (1M) exposure, group mean, n=6): 1.7 | Cough, observation period 9-10, individual animal (min 9-10 of citric acid (1M) exposure, individual animals 1-6): 2 (3×) and 3 and 0 and 1 | Cough, observation period 9-10, Total (min 9-10 of citric acid (1M) exposure, sum over 6 animals): 10.0 | Cough, observation period 10-11, Mean (min 10-11, post exposure, group mean, n=6): 1.5 | Cough, observation period 10-11, individual animal (min 10-11, post exposure, individual animals 1-6): 1 (3×) and 2 (3×) | Cough, observation period 10-11, Total (min 10-11, post exposure, sum over 6 animals): 9.0 | Cough, observation period 11-12, Mean (min 11-12, post exposure, group mean, n=6): 0.5 | Cough, observation period 11-12, individual animal (min 11-12, post exposure, individual animals 1-6): 0 (3×) and 1 (3×) | Cough, observation period 11-12, Total (min 11-12, post exposure, sum over 6 animals): 3.0 | Cough, observation period 12-13, Mean (min 12-13, post exposure, group mean, n=6): 0.5 | Cough, observation period 12-13, individual animal (min 12-13, post exposure, individual animals 1-6): 1 (3×) and 0 (3×) | Cough, observation period 12-13, Total (min 12-13, post exposure, sum over 6 animals): 3.0 | Cough, observation period 13-14, Mean (min 13-14, post exposure, group mean, n=6): 0.2 | Cough, observation period 13-14, individual animal (min 13-14, post exposure, individual animals 1-6): 0 (5×) and 1 | Cough, observation period 13-14, Total (min 13-14, post exposure, sum over 6 animals): 1.0 | Cough, observation period 14-15, Mean (min 14-15, post exposure, group mean, n=6): 0.0 | Cough, observation period 14-15, individual animal (min 14-15, post exposure, individual animals 1-6): 0 | Cough, observation period 14-15, Total (min 14-15, post exposure, sum over 6 animals): 0.0
